# Measurements reported in ChEMBL document CHEMBL1131844, “Substituted indoles as potent and orally active 5-lipoxygenase activating protein (FLAP) inhibitors” (Bioorg Med Chem Lett, 1999).
# pIC50: −log10 of the molar value.
# What was measured:
# [1] = biological target: T1, Arachidonate 5-lipoxygenase-activating protein (Homo sapiens, UniProt P20292); test: Measuring the affinity of leukotriene synthesis inhibitor for 5-lipoxygenase activating protein by using [125I]L-691831 as radioligand.
# T1 sequence (P20292 whole entry): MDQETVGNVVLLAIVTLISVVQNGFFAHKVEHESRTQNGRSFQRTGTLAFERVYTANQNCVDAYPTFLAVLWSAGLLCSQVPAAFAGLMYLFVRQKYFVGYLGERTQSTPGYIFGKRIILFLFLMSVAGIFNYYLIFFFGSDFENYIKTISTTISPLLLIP
# [2] = species on record: Homo sapiens; test: The drug dependent inhibition of LTB4 biosynthesis in human whole blood (HWB) activated with the ionophore A-23187; type: functional, organism-based
# [3] = species on record: Homo sapiens; test: In vitro inhibition of LTB4 biosynthesis in Ca++ ionophore activated human polymorphonuclear (HPMN) leukocytes.; type: functional
# [4] = tested on: Rattus norvegicus; test: Compound was evaluated in vivo for its functional activity(in percent) in a hyperreactive rat model of dyspnea; parameters: concentration or dose not given beside the values
# [5] = tested on: Rattus norvegicus; test: In vivo inhibitory activity against LTB4 biosynthesis by rat pleurisy model (v3h pre treatment time periods); type: functional
# [6] = Bioavailability in rat; type: ADME, organism-based; conditions: in vivo
# [7] = plasma level at 2 hr after administration of the compound; type: ADME, organism-based; conditions: rat
# [8] = tested on: Rattus norvegicus; test: In vivo inhibitory activity against LTB4 biosynthesis by rat pleurisy model (3 pre treatment time periods); type: functional
# [9] = tested on: Rattus norvegicus; test: In vivo inhibitory activity against LTB4 biosynthesis by rat pleurisy model (6h pre treatment time periods); type: functional
# [10] = tested on: Rattus norvegicus; test: In vivo inhibitory activity against LTB4 biosynthesis by rat pleurisy model (3h pre treatment time periods); type: functional
# [11] = tested on: Rattus norvegicus; test: In vivo inhibitory activity against LTB4 biosynthesis by rat pleurisy model (1 pre treatment time periods); type: functional
# [12] = tested on: Canis familiaris; test: Inhibition of ex vivo urinary leukotriene E4 (LTE4) excretion from A-23,187-challenged dog after intravenous infusion of 2.5 ug/kg/min; type: functional; conditions: Canis lupus familiaris, Urine
# [13] = tested on: Rattus norvegicus; test: In vivo inhibitory activity against LTB4 biosynthesis by rat pleurisy model (6 pre treatment time periods); type: functional
# [14] = tested on: Canis familiaris; test: Inhibition of ex vivo leukotriene B4 (LTB4) in whole blood of A-23,187-challenged dog after intravenous infusion of 2.5 ug/kg/min; type: functional; conditions: Canis lupus familiaris
# [15] = tested on: Rattus norvegicus; test: In vivo inhibitory activity against LTB4 biosynthesis by rat pleurisy model (2h pre treatment time period); type: functional
# [16] = Plasma level at 2 hr after administration of the compound; type: ADME, organism-based; conditions: rat
SMILES,pIC50 [1],"pIC50 ([2]; Homo sapiens, Blood)",pIC50 ([3]; Homo sapiens),further results
CC(C)(C)Sc1c(CC(C)(C)C(=O)O)n(Cc2ccc(Cl)cc2)c2ccc(OCc3cscn3)cc12,8.30,6.57,8.52,Functional activity in dyspnea model [4]: 61%; ED50 [5]: 0.12 mg/kg; bioavailability [6]: 98%; concentration at 2 h [7]: 8 µM
CC(C)(C)Sc1c(CC(C)(C)C(=O)O)n(Cc2ccc(Cl)cc2)c2ccc(OCc3nc4cc(C(F)(F)F)ccc4s3)cc12,6.73,< 5.52,7.66,–
CC(C)(C)Sc1c(CC(C)(C)C(=O)O)n(Cc2ccc(Cl)cc2)c2ccc(COCc3ccc4ccccc4n3)cc12,7.59,< 5.52,< 7.74,–
CC(C)(C)Sc1c(CC(C)(C)C(=O)O)n(Cc2ccc(Cl)cc2)c2ccc(OCc3cc4ccccc4cn3)cc12,8.00,< 5.52,8.52,–
CC(C)(C)Sc1c(CC(C)(C)C(=O)O)n(Cc2ccc(Cl)cc2)c2ccc(OCc3cnc4ccccc4c3)cc12,7.32,–,–,–
CC(C)(C)Sc1c(CC(C)(C)C(=O)O)n(Cc2ccc(Cl)cc2)c2c(OCc3ccc4ccccc4n3)cccc12,5.71,–,–,–
COc1ccc2nc(COc3ccc4c(c3)c(SC(C)(C)C)c(CC(C)(C)C(=O)O)n4Cc3ccc(Cl)cc3)sc2c1,7.14,6.17,8.10,–
C[C@H](COc1ccc2c(c1)c(SC(C)(C)C)c(CC(C)(C)C(=O)O)n2Cc1ccc(Cl)cc1)c1ccccn1,7.92,6.33,8.52,–
CC(C)(C)Sc1c(CC(C)(C)C(=O)O)n(Cc2ccc(Cl)cc2)c2ccc(OCc3nc4ccccc4s3)cc12,8.70,6.59,8.52,Functional activity in dyspnea model [4]: 45%; ED50 [8]: 0.85 mg/kg; bioavailability [6]: 81%; concentration at 2 h [7]: 6 µM
CC(C)(C)Sc1c(CC(C)(C)C(=O)O)n(Cc2ccc(Cl)cc2)c2ccc(OCc3ccccn3)cc12,8.52,6.89,8.70,ED50 [9]: 0.09 mg/kg; ED50 [10]: 0.3 mg/kg; Functional activity in dyspnea model [4]: 77%; bioavailability [6]: 48%; concentration at 2 h [7]: 9 µM
CC(C)(C)Sc1c(CC(C)(C)C(=O)O)n(Cc2ccc(Cl)cc2)c2ccc(OCc3ccncc3)cc12,7.32,< 5.52,8.22,–
CC(C)(C)Sc1c(CC(C)(C)C(=O)O)n(Cc2ccc(Cl)cc2)c2ccc(OCc3cccc(Cl)n3)cc12,8.10,6.39,8.52,Functional activity in dyspnea model [4]: 34%; bioavailability [6]: 37%; concentration at 2 h [7]: 3.5 µM
CC(C)(C)Sc1c(CC(C)(C)C(=O)O)n(Cc2ccc(Cl)cc2)c2ccc(OCc3cccnc3)cc12,7.23,< 5.52,8.10,–
CC(C)(C)Sc1c(CC(C)(C)C(=O)O)n(Cc2ccc(Cl)cc2)c2ccc(OCc3ccc4cnccc4n3)cc12,8.70,6.01,8.52,–
CC(C)(C)Sc1c(CC(C)(C)C(=O)O)n(Cc2ccc(Cl)cc2)c2cc(OCc3ccc4ccccc4n3)ccc12,6.37,–,–,–
CC(C)(C)Sc1c(CC(C)(C)C(=O)O)n(Cc2ccc(Cl)cc2)c2cccc(OCc3ccc4ccccc4n3)c12,7.07,–,–,–
CC(C)(C)Sc1c(CC(C)(C)C(=O)O)n(Cc2ccc(Cl)cc2)c2ccc(OCc3ccc4cc(F)ccc4n3)cc12,8.70,6.06,8.70,–
CC(C)(C)Sc1c(CC(C)(C)C(=O)O)n(Cc2ccc(Cl)cc2)c2ccc(OCc3ccc4c(n3)CCCC4)cc12,8.10,5.54,8.52,–

SMILES,pIC50 [1],"pIC50 ([2]; Homo sapiens, Blood)",pIC50 ([3]; Homo sapiens),further results
Cc1nc2ccc(COc3ccc4c(c3)c(SC(C)(C)C)c(CC(C)(C)C(=O)O)n4Cc3ccc(Cl)cc3)cc2s1,7.40,< 5.52,8.22,–
CC(C)(C)Sc1c(CC(C)(C)C(=O)O)n(Cc2ccc(Cl)cc2)c2ccc(OCc3nc4ccccc4o3)cc12,8.30,5.60,> 8.15,–
CC(C)(C)Sc1c(CC(C)(C)C(=O)O)n(Cc2ccc(Cl)cc2)c2ccc(OCc3cnccn3)cc12,8.15,6.40,8.40,–
CC(C)(C)Sc1c(CC(C)(C)C(=O)O)n(Cc2ccc(Cl)cc2)c2ccc(OCc3ccc4cc(F)c(F)cc4n3)cc12,7.85,< 5.52,8.15,–
CC(C)(C)Sc1c(CC(C)(C)C(=O)O)n(Cc2ccc(Cl)cc2)c2ccc(/C=C/c3ccc4ccccc4n3)cc12,7.96,< 5.52,7.92,–
CC(C)(C)Sc1c(CC(C)(C)C(=O)O)n(Cc2ccc(Cl)cc2)c2ccc(OCc3ccnc4ccccc34)cc12,7.21,–,–,–
CC(C)c1csc(COc2ccc3c(c2)c(SC(C)(C)C)c(CC(C)(C)C(=O)O)n3Cc2ccc(Cl)cc2)n1,7.89,< 5.52,8.52,–
CC(C)(C)Sc1c(CC(C)(C)C(=O)O)n(Cc2ccc(Cl)cc2)c2ccc(OCc3cccs3)cc12,7.15,< 5.52,8.40,–
CC(COc1ccc2c(c1)c(SC(C)(C)C)c(CC(C)(C)C(=O)O)n2Cc1ccc(Cl)cc1)c1ccccn1 (centres undefined),8.10,6.57,8.40,–
CC(C)(C)Sc1c(CC(C)(C)C(=O)O)n(Cc2ccc(Cl)cc2)c2ccc(OCc3ccc4cccnc4n3)cc12,8.70,< 5.52,8.22,–
CCCC(Oc1ccc2c(c1)c(SC(C)(C)C)c(CC(C)(C)C(=O)O)n2Cc1ccc(Cl)cc1)c1ccc2ccccc2n1 (centres undefined),6.46,< 5.52,< 7.28,–
CC(C)(C)Sc1c(CC(C)(C)C(=O)O)n(Cc2ccc(Cl)cc2)c2ccc(CCc3ccc4ccccc4n3)cc12,7.80,< 5.52,8.40,–
Cc1nc(COc2ccc3c(c2)c(SC(C)(C)C)c(CC(C)(C)C(=O)O)n3Cc2ccc(Cl)cc2)cs1,8.52,6.89,8.70,ED50 [10]: 0.15 mg/kg; Functional activity in dyspnea model [4]: 48%; bioavailability [6]: 98%; concentration at 2 h [7]: 8 µM
CC(Oc1ccc2c(c1)c(SC(C)(C)C)c(CC(C)(C)C(=O)O)n2Cc1ccc(Cl)cc1)c1ccc2ccccc2n1 (racemic),7.80,–,–,pIC50 [2]: 6.10; pIC50 [3]: 8.05
"CC(Oc1ccc2c(c1)c(SC(C)(C)C)c(CC(C)(C)C(=O)O)n2Cc1ccc(Cl)cc1)c1ccc2ccccc2n1 (single isomer, unassigned; (-))",8.15,–,–,pIC50 [2]: 6.44; pIC50 [3]: 8.30; Functional activity in dyspnea model [4]: 45%; ED50 [11]: 1 mg/kg; bioavailability [6]: 48%; concentration at 2 h [7]: 4.2 µM
CC(Oc1ccc2c(c1)c(SC(C)(C)C)c(CC(C)(C)C(=O)O)n2Cc1ccc(Cl)cc1)c1ccc2ccccc2n1 (stereo in doubt; 6),6.94,–,–,pIC50 [2]: < 5.52; pIC50 [3]: 7.49
CC(C)(C)Sc1c(CC(C)(C)C(=O)O)n(Cc2ccc(Cl)cc2)c2ccc(OCc3ccc4ccccc4n3)cc12 [QUIFLAPON],–,–,8.40,inhibition in vivo at 2.5 µg/kg/min [12]: 71%; ED50 [13]: 0.15 mg/kg; inhibition in vivo at 2.5 µg/kg/min [14]: 94%; ED50 [15]: 0.51 mg/kg; concentration at 2 h [16]: 2.5 µM; Functional activity in dyspnea model [4]: 51%; bioavailability [6]: 24%
